Experimental findings from patent publication US5670503A, “Pyrazole derivatives” (Fujisawa Pharmaceutical Co., Ltd., priority 1993, dated 1997) are described below.

The structures appear in SMILES notation.

In assay [1] the test system is production of Interleukin-1 (IL-1). Description: Inhibitory activity on the production of Interleukin-1 (IL-1) in LPS-stimulated human peripheral blood monocyte. Type of assay: cell-based. The settings on record: 48 h; purified human peripheral blood monocyte, LPS 1 μg/10^4 cells, 2 days at 37° C., IL-1β ELISA of supernatant; read-out: IC50 (inhibition of IL-1 production). Here is the method: Purified human peripheral blood monocyte were stimulated with bacterial lipopolysaccharide (1 μg/10^4 cells) in the absence or presence of appropriately diluted test compound for 2 days at 37° C. in a humidified 5% CO2 atmosphere. Culture supernatants were tested for IL-1 ELISA assay.
Test compound was dissolved in absolute DMSO (dimethyl sulfoxide) to achieve 10 mM stock solutions and was subsequently diluted in serum free RPMI1640.
IL-1 levels were quantified by a commercial ELISA kit (Ohtsuka assay, Japan) using a sandwich technique. The sensitivity levels for the detection of IL-1β were 20 pg/ml.
(§1) The inhibitory concentration that caused a 50% inhibition (IC50) was calculated by regression analysis of the dose-response data.
In general terms: In an ELISA, binding on a coated surface is turned into a signal by an enzyme label.

In assay [2] the test system is production of tumor necrosis factor (TNF). The assay is described as follows: Inhibitory activity on the production of tumor necrosis factor (TNF) in LPS-stimulated human peripheral blood monocyte. The class given is cell-based. The settings on record: 48 h; purified human peripheral blood monocyte, LPS 1 μg/10^4 cells, 2 days at 37° C., TNF ELISA of supernatant; read-out: IC50 (inhibition of TNF production). How it is done:
Purified human peripheral blood monocyte were stimulated with bacterial lipopolysaccharide (1 μg/10^4 cells) in the absence or presence of appropriately diluted test compound for 2 days at 37° C. in a humidified 5% CO2 atmosphere. Culture supernatants were tested for TNF ELISA assay.
TNF levels were quantified by a commercial ELISA kit (Endogen, Inc. USA) using a sandwich technique. The sensitivity levels for the detection of TNF were 12 pg/ml.
as §1

As for `CC(C)(C)CN1CCn2nc(-c3ccc(F)cc3)c(-c3ccncc3)c2N1` [Example 16-(5), 7-(4-Fluorophenyl)-2-neopentyl-8-(pyridin-4-yl)-1,2,3,4-tetrahydropyrazolo[5,1-c][1,2,4]triazine], the figures for the IC50 in assay [1] and in assay [2] were 92 nM and 91 nM, respectively.

Turning to `Fc1ccc(-c2nn3c(c2-c2ccncc2)NN(C2CCCCC2)CC3)cc1` [Example 18-(2), 2-Cyclohexyl-7-(4-Fluorophenyl)-8-(pyridin-4-yl)-1,2,3,4-tetrahydropyrazolo[5,1-c][1,2,4]triazine], the values for the IC50 in assay [1] and in assay [2] were 88 nM and 110 nM, respectively.

By IC50 is commonly meant the midpoint of a concentration-inhibition curve.
